Test results reported in ChEMBL document CHEMBL3885881, “DrugMatrix”.

Species on record: Rattus norvegicus
Assay: DrugMatrix - Regimen: Daily Repeat
Assay type: toxicity, organism-based, Sprague-Dawley
Set-up: regimen Daily Repeat, gender Male, age 6-8 weeks
Details: in vivo, po, route oral GAVAGE, vehicle 100 % WATER; for ABSOLUTE BASOPHIL / ABSOLUTE EOSINOPHIL / ABSOLUTE LYMPHOCYTE / ABSOLUTE MONOCYTE / ABSOLUTE SEGMENTED NEUTROPHIL / BASOPHIL / EOSINOPHIL / ERYTHROCYTE COUNT / HEMATOCRIT / HEMOGLOBIN / LEUKOCYTE COUNT / LYMPHOCYTE / MEAN CORPUSCULAR HEMOGLOBIN / MEAN CORPUSCULAR HEMOGLOBIN CONCENTRATION / MEAN CORPUSCULAR VOLUME / MONOCYTE / NEUTROPHIL / NUCLEATED RED BLOOD CELLS / PLATELET COUNT: tissue Blood; for ALANINE AMINOTRANSFERASE / ALBUMIN / ALKALINE PHOSPHATASE / ASPARTATE AMINOTRANSFERASE / BLOOD UREA NITROGEN / CARBON DIOXIDE / CHLORIDE / CHOLESTEROL / CREATINE PHOSPHOKINASE / CREATININE / GLUCOSE / LACTATE DEHYDROGENASE / LIPASE / PHOSPHORUS / POTASSIUM / SODIUM / TOTAL BILIRUBIN / TOTAL PROTEIN / URIC ACID: tissue Plasma
[1] = 0 mg/kg, 72 h, dose level Control, time 3 day
[2] = 0 mg/kg, 120 h, dose level Control, time 5 day
[3] = 100 mg/kg, 72 h, dose level High, time 3 day
[4] = 100 mg/kg, 120 h, dose level High, time 5 day

CN(C)CCOC(c1ccccc1)c1ccccc1 [DIPHENHYDRAMINE]
ABSOLUTE BASOPHIL [1]: 0 CELLS/uL | ABSOLUTE EOSINOPHIL [1]: 20.17 CELLS/uL | ABSOLUTE LYMPHOCYTE [1]: 12371.67 CELLS/uL | ABSOLUTE MONOCYTE [1]: 166 CELLS/uL | ABSOLUTE SEGMENTED NEUTROPHIL [1]: 1292.17 CELLS/uL | BASOPHIL [1]: 0% | EOSINOPHIL [1]: 0.17% | ERYTHROCYTE COUNT [1]: 5.46 x10E6/uL | HEMATOCRIT [1]: 34.38% | HEMOGLOBIN [1]: 13.32 G/DL | LEUKOCYTE COUNT [1]: 13.85 x10E3/uL | LYMPHOCYTE [1]: 88.5% | MEAN CORPUSCULAR HEMOGLOBIN [1]: 24.42 pg | MEAN CORPUSCULAR HEMOGLOBIN CONCENTRATION [1]: 38.7 G/DL | MEAN CORPUSCULAR VOLUME [1]: 63.07 fL | MONOCYTE [1]: 1.17% | NEUTROPHIL [1]: 10.17% | NUCLEATED RED BLOOD CELLS [1]: 0.17 /100WBC | PLATELET COUNT [1]: 1193.5 x10E3/uL | ALANINE AMINOTRANSFERASE [1]: 54.5 u/L | ALBUMIN [1]: 4.02 G/DL | ALKALINE PHOSPHATASE [1]: 346.5 u/L | ASPARTATE AMINOTRANSFERASE [1]: 103.17 u/L | BLOOD UREA NITROGEN [1]: 16.5 mg/dL | CARBON DIOXIDE [1]: 29.83 mmol/L | CHLORIDE [1]: 99.5 MEQ/L | CHOLESTEROL [1]: 72.5 mg/dL | CREATINE PHOSPHOKINASE [1]: 532.5 u/L | CREATININE [1]: 0.18 mg/dL | GLUCOSE [1]: 168.5 mg/dL | LACTATE DEHYDROGENASE [1]: 536.5 u/L | LIPASE [1]: 11.17 u/L | PHOSPHORUS [1]: 11.48 mg/dL | POTASSIUM [1]: 5.95 MEQ/L | SODIUM [1]: 140.5 MEQ/L | TOTAL BILIRUBIN [1]: 0.18 mg/dL | TOTAL PROTEIN [1]: 5.77 G/DL | URIC ACID [1]: 1.42 mg/dL | ABSOLUTE BASOPHIL [2]: 0 CELLS/uL | ABSOLUTE EOSINOPHIL [2]: 22.83 CELLS/uL | ABSOLUTE LYMPHOCYTE [2]: 12202.83 CELLS/uL | ABSOLUTE MONOCYTE [2]: 158 CELLS/uL | ABSOLUTE SEGMENTED NEUTROPHIL [2]: 1283 CELLS/uL | BASOPHIL [2]: 0% | EOSINOPHIL [2]: 0.17% | ERYTHROCYTE COUNT [2]: 5.88 x10E6/uL | HEMATOCRIT [2]: 36.62% | HEMOGLOBIN [2]: 14.07 G/DL | LEUKOCYTE COUNT [2]: 13.67 x10E3/uL | LYMPHOCYTE [2]: 89.5% | MEAN CORPUSCULAR HEMOGLOBIN [2]: 23.95 pg | MEAN CORPUSCULAR HEMOGLOBIN CONCENTRATION [2]: 38.43 G/DL | MEAN CORPUSCULAR VOLUME [2]: 62.28 fL | MONOCYTE [2]: 1.17% | NEUTROPHIL [2]: 9.17% | NUCLEATED RED BLOOD CELLS [2]: 0.17 /100WBC | PLATELET COUNT [2]: 1198 x10E3/uL | ALANINE AMINOTRANSFERASE [2]: 51 u/L | ALBUMIN [2]: 4.3 G/DL | ALKALINE PHOSPHATASE [2]: 343 u/L | ASPARTATE AMINOTRANSFERASE [2]: 89.83 u/L | BLOOD UREA NITROGEN [2]: 17.67 mg/dL | CARBON DIOXIDE [2]: 27.17 mmol/L | CHLORIDE [2]: 98.33 MEQ/L | CHOLESTEROL [2]: 82.5 mg/dL | CREATINE PHOSPHOKINASE [2]: 533.33 u/L | CREATININE [2]: 0.18 mg/dL | GLUCOSE [2]: 152.67 mg/dL | LACTATE DEHYDROGENASE [2]: 220.33 u/L | LIPASE [2]: 11.5 u/L | PHOSPHORUS [2]: 11.25 mg/dL | POTASSIUM [2]: 6.29 MEQ/L | SODIUM [2]: 140.53 MEQ/L | TOTAL BILIRUBIN [2]: 0.22 mg/dL | TOTAL PROTEIN [2]: 6.12 G/DL | URIC ACID [2]: 1.42 mg/dL | ABSOLUTE BASOPHIL [3]: 0 CELLS/uL | ABSOLUTE EOSINOPHIL [3]: 48.67 CELLS/uL | ABSOLUTE LYMPHOCYTE [3]: 13023.67 CELLS/uL | ABSOLUTE MONOCYTE [3]: 77 CELLS/uL | ABSOLUTE SEGMENTED NEUTROPHIL [3]: 750.67 CELLS/uL | BASOPHIL [3]: 0% | EOSINOPHIL [3]: 0.33% | ERYTHROCYTE COUNT [3]: 5.83 x10E6/uL | HEMATOCRIT [3]: 36.17% | HEMOGLOBIN [3]: 14.33 G/DL | LEUKOCYTE COUNT [3]: 13.9 x10E3/uL | LYMPHOCYTE [3]: 93.67% | MEAN CORPUSCULAR HEMOGLOBIN [3]: 24.6 pg | MEAN CORPUSCULAR HEMOGLOBIN CONCENTRATION [3]: 39.67 G/DL | MEAN CORPUSCULAR VOLUME [3]: 62.07 fL | MONOCYTE [3]: 0.67% | NEUTROPHIL [3]: 5.33% | NUCLEATED RED BLOOD CELLS [3]: 0 /100WBC | PLATELET COUNT [3]: 1203 x10E3/uL | ALANINE AMINOTRANSFERASE [3]: 46.67 u/L | ALBUMIN [3]: 4 G/DL | ALKALINE PHOSPHATASE [3]: 345.33 u/L | ASPARTATE AMINOTRANSFERASE [3]: 88.67 u/L | BLOOD UREA NITROGEN [3]: 16.67 mg/dL | CARBON DIOXIDE [3]: 30.33 mmol/L | CHLORIDE [3]: 100.33 MEQ/L | CHOLESTEROL [3]: 78 mg/dL | CREATINE PHOSPHOKINASE [3]: 422.33 u/L | CREATININE [3]: 0.14 mg/dL | GLUCOSE [3]: 146 mg/dL | LACTATE DEHYDROGENASE [3]: 334.67 u/L | LIPASE [3]: 11.67 u/L | PHOSPHORUS [3]: 12.1 mg/dL | POTASSIUM [3]: 6.05 MEQ/L | SODIUM [3]: 141 MEQ/L | TOTAL BILIRUBIN [3]: 0.17 mg/dL | TOTAL PROTEIN [3]: 5.67 G/DL | URIC ACID [3]: 1.3 mg/dL | ABSOLUTE BASOPHIL [4]: 0 CELLS/uL | ABSOLUTE EOSINOPHIL [4]: 0 CELLS/uL | ABSOLUTE LYMPHOCYTE [4]: 12726.67 CELLS/uL | ABSOLUTE MONOCYTE [4]: 228 CELLS/uL | ABSOLUTE SEGMENTED NEUTROPHIL [4]: 1012 CELLS/uL | BASOPHIL [4]: 0% | EOSINOPHIL [4]: 0% | ERYTHROCYTE COUNT [4]: 5.75 x10E6/uL | HEMATOCRIT [4]: 34.8% | HEMOGLOBIN [4]: 13.73 G/DL | LEUKOCYTE COUNT [4]: 13.97 x10E3/uL | LYMPHOCYTE [4]: 91.33% | MEAN CORPUSCULAR HEMOGLOBIN [4]: 23.9 pg | MEAN CORPUSCULAR HEMOGLOBIN CONCENTRATION [4]: 39.47 G/DL | MEAN CORPUSCULAR VOLUME [4]: 60.53 fL | MONOCYTE [4]: 1.67% | NEUTROPHIL [4]: 7% | NUCLEATED RED BLOOD CELLS [4]: 0 /100WBC | PLATELET COUNT [4]: 1281 x10E3/uL | ALANINE AMINOTRANSFERASE [4]: 54.33 u/L | ALBUMIN [4]: 3.93 G/DL | ALKALINE PHOSPHATASE [4]: 386 u/L | ASPARTATE AMINOTRANSFERASE [4]: 79.33 u/L | BLOOD UREA NITROGEN [4]: 16.67 mg/dL | CARBON DIOXIDE [4]: 25.67 mmol/L | CHLORIDE [4]: 99 MEQ/L | CHOLESTEROL [4]: 60 mg/dL | CREATINE PHOSPHOKINASE [4]: 323.33 u/L | CREATININE [4]: 0.11 mg/dL | GLUCOSE [4]: 154.67 mg/dL | LACTATE DEHYDROGENASE [4]: 155.33 u/L | LIPASE [4]: 11.33 u/L | PHOSPHORUS [4]: 11.47 mg/dL | POTASSIUM [4]: 6.2 MEQ/L | SODIUM [4]: 141.53 MEQ/L | TOTAL BILIRUBIN [4]: 0.2 mg/dL | TOTAL PROTEIN [4]: 5.5 G/DL | URIC ACID [4]: 1.97 mg/dL
